From patent US20240174723A1, “STAPLED ANTIMICROBIAL PEPTIDES (STAMPS) AND USES THEREOF” (Lytica Therapeutics, Inc., priority 2021, published 2024)
Values after ≈ are worked out from the molar mass of the structure shown. Positions of bridges follow the written chain, without caps; N, C: chain ends. Non-standard residues stand in square brackets, D forms with d. Residues, ends and D or L forms follow the SMILES beside them. S5 = C=CCCC[C@](C)(N)C(=O)O

Key:
K. pneumoniae = type: cell-based, Klebsiella pneumoniae
In short: (§1)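 Broth microdilution adapted from CLSI in Mueller-Hinton broth or cation-adjusted MHB. Overnight 37 °C cultures were regrown 3-4 h, then added to serially diluted peptide at a final 5×10^5 CFU/ml. After 20-24 h at 37 °C, MIC was the lowest peptide concentration with no visible growth.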

P. aeruginosa = type: cell-based, Pseudomonas aeruginosa
In short: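 Broth microdilution adapted from CLSI in MHB or cation-adjusted MHB; log-phase P. aeruginosa at 5×10^5 CFU/ml final with serially diluted stapled peptides. Incubated 20-24 h at 37 °C; MIC is the lowest concentration without visible growth.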

A. baumannii = type: cell-based, Acinetobacter baumannii
In short: as §1

S. aureus = type: cell-based, Staphylococcus aureus
In short: as §1

in vitro [1] = type: cell-based; settings: human
In short: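 RPTEC or HepG2 cells plated overnight, given fresh media, then serial StAMP dilutions (from 5 mg/mL water stock) or vehicle at 37 °C. Cytotoxicity read as LDH release into media, absorbance 490 nm; renal toxicity after 90 min, liver toxicity after 48 h incubation.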

in vitro [2] = type: cell-based; settings: human, Inhibitory Concentration at 50% Cytotoxicity (IC50) Human Liver Cells (HepG2)
In short: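 HepG2 cells in EMEM with 10% FBS, allowed 4 h to attach, then exposed to serial dilutions of StAMPs (from a 5 mg/mL water stock) or vehicle. After 48 h at 37 °C, viability read by CellTiter-Glo luminescence.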

E. coli = type: cell-based, Escherichia coli
In short: as §1

SMILES	Minimum Inhibitory Concentration (MIC) K. pneumoniae (K. pneumoniae) [µg/mL]	Minimum Inhibitory Concentration (MIC) P. aeruginosa (P. aeruginosa) [µg/mL]	Minimum Inhibitory Concentration (MIC) A. baumannii (A. baumannii) [µg/mL]	Minimum Inhibitory Concentration (MIC) S. aureus (S. aureus) [µg/mL]	IC50 at 90 min (in vitro [1]) [µg/mL]	Minimum Inhibitory Concentration (MIC) E. coli (E. coli) [µg/mL]	IC50 at 48 hours (in vitro [2]) [µg/mL]
CC(C)[C@@H]1NC(=O)[C@@](C)(NC(=O)[C@H](C)NC(=O)[C@H](CCCCN)NC(=O)CNC(=O)[C@H](Cc2ccccc2)NC(=O)[C@H](CCCCN)NC(=O)[C@H](CCCCN)NC(=O)[C@H](CCCCN)NC(=O)[C@H](CO)NC(=O)[C@H](Cc2c[nH]c3ccccc23)NC(=O)[C@]2(C)CCCC=CCCC[C@](C)(NC(=O)CN)C(=O)NCC(=O)N[C@@H](CCCCN)C(=O)N[C@@H](Cc3ccccc3)C(=O)N2)CCCC=CCCC[C@@](C)(C(=O)N[C@@H](C)C(=O)N[C@@H](CCCCN)C(=O)N[C@@H](CCCCN)C(N)=O)NC(=O)[C@H](CCC(=O)O)NC(=O)CNC1=O [compound 60] (H-G[S5]GKF[S5]WSKKKFGKA[S5]VGE[S5]AKK-NH2; staple 2-6, 16-20)	32	8	4	>64	108 (≈ 41.8 µM)	4	56 (≈ 21.7 µM)
CC(C)[C@@H]1NC(=O)[C@@](C)(NC(=O)[C@H](C)NC(=O)[C@H](CCCCN)NC(=O)CNC(=O)[C@H](Cc2ccccc2)NC(=O)[C@H](CCCCN)NC(=O)[C@H](CCCCN)NC(=O)[C@H](CCCCN)NC(=O)[C@H](CCCCN)NC(=O)[C@H](CCCCN)NC(=O)[C@]2(C)CCCC=CCCC[C@](C)(NC(=O)CN)C(=O)NCC(=O)N[C@@H](CCCCN)C(=O)N[C@@H](Cc3ccccc3)C(=O)N2)CCCC=CCCC[C@@](C)(C(=O)N[C@@H](C)C(=O)N[C@@H](CCCCN)C(=O)N[C@@H](CCCCN)C(=O)NCC(=O)NCC(=O)N[C@@H](CCC(N)=O)C(N)=O)NC(=O)[C@H](CCC(=O)O)NC(=O)CNC1=O [compound 77] (H-G[S5]GKF[S5]KKKKKFGKA[S5]VGE[S5]AKKGGQ-NH2; staple 2-6, 16-20)	16	4	3	>64	> 200	4	> 200
CC(C)[C@@H]1NC(=O)[C@@](C)(NC(=O)[C@H](CCCCN)NC(=O)[C@H](CCCCN)NC(=O)[C@H](CCCCN)NC(=O)[C@H](CCCCN)NC(=O)[C@H](CCCCN)NC(=O)[C@]2(C)CCCC=CCCC[C@](C)(NC(=O)CN)C(=O)NCC(=O)N[C@@H](CCCCN)C(=O)N[C@@H](Cc3ccccc3)C(=O)N2)CCCC=CCCC[C@@](C)(C(=O)N[C@@H](C)C(=O)N[C@@H](CCCCN)C(=O)N[C@@H](CCCCN)C(N)=O)NC(=O)[C@H](CCC(=O)O)NC(=O)CNC1=O [compound 70] (H-G[S5]GKF[S5]KKKKK[S5]VGE[S5]AKK-NH2; staple 2-6, 12-16)	4	4	16	>64	125 (≈ 57.8 µM)	4	102 (≈ 47.2 µM)
CC(C)[C@@H]1NC(=O)[C@@](C)(NC(=O)[C@H](C)NC(=O)[C@H](CCCCN)NC(=O)CNC(=O)[C@H](Cc2ccccc2)NC(=O)[C@H](CCCCN)NC(=O)[C@H](CCCCN)NC(=O)[C@H](CCCCN)NC(=O)[C@H](CO)NC(=O)[C@H](Cc2c[nH]cn2)NC(=O)[C@]2(C)CCCC=CCCC[C@](C)(NC(=O)CN)C(=O)NCC(=O)N[C@@H](CCCCN)C(=O)N[C@@H](Cc3c[nH]c4ccccc34)C(=O)N2)CCCC=CCCC[C@@](C)(C(=O)N[C@@H](C)C(=O)N[C@@H](CCCCN)C(=O)N[C@@H](CCCCN)C(N)=O)NC(=O)[C@H](CCC(=O)O)NC(=O)CNC1=O [compound 59] (H-G[S5]GKW[S5]HSKKKFGKA[S5]VGE[S5]AKK-NH2; staple 2-6, 16-20)	64	8	4	>64	> 200	4	> 200
CC(C)[C@@H]1NC(=O)[C@H](C(C)C)NC(=O)[C@@](C)(NC(=O)[C@H](C)NC(=O)[C@H](CCCCN)NC(=O)CNC(=O)[C@H](Cc2ccccc2)NC(=O)[C@H](CCCCN)NC(=O)[C@H](CCCCN)NC(=O)[C@H](CCCCN)NC(=O)[C@H](CCCCN)NC(=O)[C@H](CCCCN)NC(=O)[C@]2(C)CCCC=CCCC[C@](C)(NC(=O)CN)C(=O)NCC(=O)N[C@@H](CCCCN)C(=O)N[C@@H](Cc3ccccc3)C(=O)N2)CCCC=CCCC[C@@](C)(C(=O)N[C@@H](C)C(=O)N[C@@H](CCCCN)C(=O)N[C@@H](CCCCN)C(=O)NCC(=O)NCC(=O)N[C@@H](CCC(=O)O)C(N)=O)NC(=O)[C@H](CCC(=O)O)NC1=O [compound 32] (H-G[S5]GKF[S5]KKKKKFGKA[S5]VVE[S5]AKKGGE-NH2; staple 2-6, 16-20)	8	4	4	>64	~200 (≈ 70.2 µM)	4	> 200

Now from value to molecule, other results behind:

Minimum Inhibitory Concentration (MIC) K. pneumoniae (K. pneumoniae) [µg/mL]	Minimum Inhibitory Concentration (MIC) P. aeruginosa (P. aeruginosa) [µg/mL]	Minimum Inhibitory Concentration (MIC) A. baumannii (A. baumannii) [µg/mL]	Minimum Inhibitory Concentration (MIC) S. aureus (S. aureus) [µg/mL]	IC50 at 90 min (in vitro [1]) [µg/mL]	Minimum Inhibitory Concentration (MIC) E. coli (E. coli) [µg/mL]	SMILES	IC50 at 48 hours (in vitro [2]) [µg/mL]
16	8	2	>64	> 200	6	CC(C)[C@@H]1NC(=O)[C@@](C)(NC(=O)[C@H](C)NC(=O)[C@H](CCCCN)NC(=O)CNC(=O)[C@H](Cc2ccccc2)NC(=O)[C@H](CCCCN)NC(=O)[C@H](CCCCN)NC(=O)[C@H](CCCCN)NC(=O)[C@H](CO)NC(=O)[C@H](Cc2c[nH]cn2)NC(=O)[C@]2(C)CCCC=CCCC[C@](C)(NC(=O)CN)C(=O)NCC(=O)N[C@@H](CCCCN)C(=O)N[C@@H](Cc3ccccc3)C(=O)N2)CCCC=CCCC[C@@](C)(C(=O)N[C@@H](C)C(=O)N[C@@H](CCCCN)C(=O)N[C@@H](CCCCN)C(N)=O)NC(=O)[C@H](CCC(=O)O)NC(=O)[C@H]([C@@H](C)O)NC1=O [compound 15] (H-G[S5]GKF[S5]HSKKKFGKA[S5]VTE[S5]AKK-NH2; staple 2-6, 16-20)	> 200
>64	16	4	>64	> 200	8	CC(C)[C@@H]1NC(=O)[C@@](C)(NC(=O)[C@H](C)NC(=O)[C@H](CCCCN)NC(=O)CNC(=O)[C@H](Cc2ccccc2)NC(=O)[C@H](CCCCN)NC(=O)[C@H](CCCCN)NC(=O)[C@H](CCCCN)NC(=O)[C@H](Cc2ccc(O)cc2)NC(=O)[C@H](Cc2c[nH]cn2)NC(=O)[C@]2(C)CCCC=CCCC[C@](C)(NC(=O)CN)C(=O)NCC(=O)N[C@@H](CCCCN)C(=O)N[C@@H](Cc3ccccc3)C(=O)N2)CCCC=CCCC[C@@](C)(C(=O)N[C@@H](C)C(=O)N[C@@H](CCCCN)C(=O)N[C@@H](CCCCN)C(N)=O)NC(=O)[C@H](CCC(=O)O)NC(=O)CNC1=O [compound 9] (H-G[S5]GKF[S5]HYKKKFGKA[S5]VGE[S5]AKK-NH2; staple 2-6, 16-20)	> 200
>64	8	4	>64	> 200	8	CC(C)[C@@H]1NC(=O)[C@@](C)(NC(=O)[C@H](C)NC(=O)[C@H](CCCCN)NC(=O)CNC(=O)[C@H](Cc2ccccc2)NC(=O)[C@H](CCCCN)NC(=O)[C@H](CCCCN)NC(=O)[C@H](CCCCN)NC(=O)[C@@H](NC(=O)[C@H](Cc2c[nH]cn2)NC(=O)[C@]2(C)CCCC=CCCC[C@](C)(NC(=O)CN)C(=O)NCC(=O)N[C@@H](CCCCN)C(=O)N[C@@H](Cc3ccccc3)C(=O)N2)[C@@H](C)O)CCCC=CCCC[C@@](C)(C(=O)N[C@@H](C)C(=O)N[C@@H](CCCCN)C(=O)N[C@@H](CCCCN)C(N)=O)NC(=O)[C@H](CCC(=O)O)NC(=O)CNC1=O [compound 8] (H-G[S5]GKF[S5]HTKKKFGKA[S5]VGE[S5]AKK-NH2; staple 2-6, 16-20)	> 200
